According to ChEMBL document CHEMBL1146136, “Optimization of 2,4-diaminopyrimidines as GHS-R antagonists: side chain exploration” (Bioorg Med Chem Lett, 2006):

Assays:
[1] = target: T1, Growth hormone secretagogue receptor type 1 (Homo sapiens, UniProt Q92847); test: Inhibition of human GHS receptor by FLIPR; assay type: functional
[2] = target: T1, Growth hormone secretagogue receptor type 1; test: Inhibition of human GHS receptor by binding assay
[3] = target: T2, Dihydrofolate reductase (Homo sapiens) (UniProt P00374); test: Inhibition of human DHFR receptor at 30 uM
T2 sequence (whole entry): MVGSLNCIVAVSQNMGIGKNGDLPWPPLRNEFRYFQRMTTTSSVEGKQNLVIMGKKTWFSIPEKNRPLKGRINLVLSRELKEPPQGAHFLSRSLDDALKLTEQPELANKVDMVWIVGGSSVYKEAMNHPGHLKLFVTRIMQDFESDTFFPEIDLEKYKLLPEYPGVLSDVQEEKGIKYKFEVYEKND

[4] = target: T2, Dihydrofolate reductase (Homo sapiens); test: Inhibition of human DHFR receptor at 10 uM
[5] = target: T2, Dihydrofolate reductase (Homo sapiens); test: Inhibition of human DHFR receptor at 1 uM

T1 sequence (Q92847 whole entry): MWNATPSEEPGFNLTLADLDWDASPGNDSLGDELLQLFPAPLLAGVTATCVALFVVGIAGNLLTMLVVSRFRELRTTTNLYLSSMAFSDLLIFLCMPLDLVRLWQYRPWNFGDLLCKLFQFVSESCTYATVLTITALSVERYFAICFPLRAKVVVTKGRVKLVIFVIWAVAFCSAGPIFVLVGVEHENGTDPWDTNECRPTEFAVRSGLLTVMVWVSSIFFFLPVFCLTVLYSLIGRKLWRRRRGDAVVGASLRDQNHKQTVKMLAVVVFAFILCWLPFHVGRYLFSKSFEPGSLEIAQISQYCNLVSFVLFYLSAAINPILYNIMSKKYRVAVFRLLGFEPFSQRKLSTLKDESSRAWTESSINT

SMILES | IC50 [1] | IC50 [2] | inhibition [3] | inhibition [4] | inhibition [5]
Cc1ccc(COCc2nc(N)nc(N)c2-c2ccc(NCc3ccc(S(C)(=O)=O)cc3)cc2)o1 | 9.7 nM | 3.4 nM | – | – | –
CN(Cc1ccccc1)Cc1nc(N)nc(N)c1-c1ccc(NCc2ccc(S(C)(=O)=O)cc2)cc1 | 69 nM | 4 nM | – | – | –
CC(C)CCNCc1nc(N)nc(N)c1-c1ccc(NCc2ccc(S(C)(=O)=O)cc2)cc1 | 1420 nM | 61 nM | – | – | –
CS(=O)(=O)c1ccc(CNc2ccc(-c3c(N)nc(N)nc3CNC3CC3)cc2)cc1 | 945 nM | 65 nM | – | – | –
CCCCCCc1nc(N)nc(N)c1-c1ccc(NCc2ccc(S(C)(=O)=O)cc2)cc1 | 62 nM | 6 nM | – | – | –
CCCCCCCc1nc(N)nc(N)c1-c1ccc(NCc2ccc(S(C)(=O)=O)cc2)cc1 | 38 nM | 6 nM | – | – | –
CCCCNc1nc(N)nc(CC)c1-c1ccc(NCc2ccc(S(C)(=O)=O)cc2)cc1 | 736 nM | 276 nM | – | – | –
CCc1nc(N)nc(NC)c1-c1ccc(NCc2ccc(S(C)(=O)=O)cc2)cc1 | 69 nM | 37 nM | – | 82% | 41%
CS(=O)(=O)c1ccc(CNc2ccc(-c3c(N)nc(N)nc3C3CCCCC3)cc2)cc1 | 36 nM | – | – | 50% | 16%
CS(=O)(=O)c1ccc(CNc2ccc(-c3c(N)nc(N)nc3COCc3ccco3)cc2)cc1 | 9.6 nM | 2.7 nM | – | – | –
CCc1nc(N)nc(NCC(C)C)c1-c1ccc(NCc2ccc(S(C)(=O)=O)cc2)cc1 | 2480 nM | 199 nM | – | – | –
CS(=O)(=O)c1ccc(CNc2ccc(-c3c(N)nc(N)nc3COCc3cccnc3)cc2)cc1 | 187 nM | 38 nM | – | – | –
CS(=O)(=O)c1ccc(CNc2ccc(-c3c(N)nc(N)nc3CNCC3CCCC3)cc2)cc1 | 316 nM | 16 nM | – | – | –
CC(C)(C)c1nc(N)nc(N)c1-c1ccc(NCc2ccc(S(C)(=O)=O)cc2)cc1 | 11 nM | – | – | 87% | 47%
CS(=O)(=O)c1ccc(CNc2ccc(-c3c(N)nc(N)nc3C3CCC3)cc2)cc1 | 14 nM | – | – | – | –
CCOC(=O)CCc1nc(N)nc(N)c1-c1ccc(NCc2ccc(S(C)(=O)=O)cc2)cc1 | 82 nM | – | – | – | –
CS(=O)(=O)c1ccc(CNc2ccc(-c3c(N)nc(N)nc3CNCc3ccccc3)cc2)cc1 | 49 nM | 96 nM | – | – | –

SMILES | IC50 [1] | IC50 [2] | inhibition [3] | inhibition [4] | inhibition [5]
CCCCc1nc(N)nc(N)c1-c1ccc(NCc2ccc(S(C)(=O)=O)cc2)cc1 | 32 nM | 11 nM | – | – | –
CS(=O)(=O)c1ccc(CNc2ccc(-c3c(N)nc(N)nc3CN)cc2)cc1 | 7160 nM | 634 nM | – | – | –
CS(=O)(=O)c1ccc(CNc2ccc(-c3c(N)nc(N)nc3C3COc4ccccc4O3)cc2)cc1 (stereo not given) | 180 nM | – | – | – | –
CCCNc1nc(N)nc(CC)c1-c1ccc(NCc2ccc(S(C)(=O)=O)cc2)cc1 | 237 nM | 151 nM | – | – | –
CCCCCc1nc(N)nc(N)c1-c1ccc(NCc2ccc(S(C)(=O)=O)cc2)cc1 | 211 nM | 19 nM | – | – | –
CCc1nc(N)nc(NCCO)c1-c1ccc(NCc2ccc(S(C)(=O)=O)cc2)cc1 | 3080 nM | 354 nM | – | – | –
CS(=O)(=O)c1ccc(CNc2ccc(-c3c(N)nc(N)nc3[C@@H]3CC4C=CC3C4)cc2)cc1 (stereo not given in full) | 283 nM | – | – | 45% | –
CS(=O)(=O)c1ccc(CNc2ccc(-c3c(N)nc(N)nc3C3CCCC3)cc2)cc1 | 21 nM | – | – | 97% | 73%
CS(=O)(=O)c1ccc(CNc2ccc(-c3c(N)nc(N)nc3CNc3ccccc3)cc2)cc1 | 9.1 nM | 5.5 nM | – | – | –
CS(=O)(=O)c1ccc(CNc2ccc(-c3c(N)nc(N)nc3C3CC4CCC3C4)cc2)cc1 (stereo not given) | 137 nM | – | – | 21% | 3%
COCc1nc(N)nc(N)c1-c1ccc(NCc2ccc(S(C)(=O)=O)cc2)cc1 | 53 nM | 7.5 nM | – | – | –
CCc1nc(N)nc(N)c1-c1ccc(NCc2ccc(S(C)(=O)=O)cc2)cc1 | 37 nM | 9.7 nM | – | > 99% | > 99%
CCc1nc(N)nc(N(CC)CC)c1-c1ccc(NCc2ccc(S(C)(=O)=O)cc2)cc1 | 380 nM | 450 nM | – | – | –
CN(C)Cc1nc(N)nc(N)c1-c1ccc(NCc2ccc(S(C)(=O)=O)cc2)cc1 | 2580 nM | 186 nM | – | – | –
CCc1nc(N)nc(NC2CC2)c1-c1ccc(NCc2ccc(S(C)(=O)=O)cc2)cc1 | > 10000 nM | 601 nM | – | – | –
CC(C)c1nc(N)nc(N)c1-c1ccc(NCc2ccc(S(C)(=O)=O)cc2)cc1 | 14 nM | 5.4 nM | – | – | –

The next lines start with the values.

IC50 [1] | IC50 [2] | inhibition [3] | inhibition [4] | inhibition [5] | SMILES
1.9 nM | 0.4 nM | – | – | – | CC(C)=CCOCc1nc(N)nc(N)c1-c1ccc(NCc2ccc(S(C)(=O)=O)cc2)cc1
66 nM | – | 55% | 38% | – | CS(=O)(=O)c1ccc(CNc2ccc(-c3c(N)nc(N)nc3[C@H]3CC4C=CC3C4)cc2)cc1 (stereo not given in full)
6.8 nM | 2.8 nM | – | 97% | 88% | CC(C)CCOCc1nc(N)nc(N)c1-c1ccc(NCc2ccc(S(C)(=O)=O)cc2)cc1
57 nM | 5.2 nM | – | – | – | CCCCCCCCc1nc(N)nc(N)c1-c1ccc(NCc2ccc(S(C)(=O)=O)cc2)cc1
> 10000 nM | 244 nM | – | – | – | CCNc1nc(N)nc(CC)c1-c1ccc(NCc2ccc(S(C)(=O)=O)cc2)cc1
3 nM | 0.4 nM | – | 93% | 82% | Cc1cc(C)cc(CNC(=O)CCc2nc(N)nc(N)c2-c2ccc(NCc3ccc(S(C)(=O)=O)cc3)cc2)c1
9 nM | 2.5 nM | – | 84% | 42% | CN(Cc1nc(N)nc(N)c1-c1ccc(NCc2ccc(S(C)(=O)=O)cc2)cc1)c1ccccc1
19 nM | – | – | – | – | CS(=O)(=O)c1ccc(CNc2ccc(-c3c(N)nc(N)nc3C3CC3)cc2)cc1
57 nM | – | – | 84% | – | CS(=O)(=O)c1ccc(CNc2ccc(-c3c(N)nc(N)nc3[C@H]3CCCO3)cc2)cc1
5.4 nM | 2 nM | – | – | – | CS(=O)(=O)c1ccc(CNc2ccc(-c3c(N)nc(N)nc3CCC(=O)NCc3cccc(Cl)c3)cc2)cc1
> 10000 nM | 700 nM | – | – | – | CCc1nc(N)nc(Nc2ccccc2)c1-c1ccc(NCc2ccc(S(C)(=O)=O)cc2)cc1
34 nM | – | – | – | – | CS(=O)(=O)c1ccc(CNc2ccc(-c3c(N)nc(N)nc3CN3Cc4ccccc4C3)cc2)cc1
354 nM | 248 nM | – | – | – | CCc1nc(N)nc(NCc2ccccc2)c1-c1ccc(NCc2ccc(S(C)(=O)=O)cc2)cc1
772 nM | 192 nM | – | – | – | CCc1nc(N)nc(N(C)C)c1-c1ccc(NCc2ccc(S(C)(=O)=O)cc2)cc1
7.1 nM | 0.3 nM | – | – | – | CS(=O)(=O)c1ccc(CNc2ccc(-c3c(N)nc(N)nc3COCc3ccccc3)cc2)cc1
40 nM | 10 nM | – | – | – | CC(C)Cc1nc(N)nc(N)c1-c1ccc(NCc2ccc(S(C)(=O)=O)cc2)cc1
12 nM | 1.5 nM | – | – | – | CS(=O)(=O)c1ccc(CNc2ccc(-c3c(N)nc(N)nc3CNc3ccc(F)cc3)cc2)cc1
38 nM | – | – | – | – | CS(=O)(=O)c1ccc(CNc2ccc(-c3c(N)nc(N)nc3C3Cc4ccccc4O3)cc2)cc1 (stereo not given)
3430 nM | 122 nM | – | – | – | CS(=O)(=O)c1ccc(CNc2ccc(-c3c(N)nc(N)nc3CNC3CCCC3)cc2)cc1
1380 nM | 279 nM | – | – | – | CNCc1nc(N)nc(N)c1-c1ccc(NCc2ccc(S(C)(=O)=O)cc2)cc1
10 nM | – | – | – | – | CN(Cc1nc(N)nc(N)c1-c1ccc(NCc2ccc(S(C)(=O)=O)cc2)cc1)c1ccc(F)cc1
41 nM | – | – | 58% | 29% | CS(=O)(=O)c1ccc(CNc2ccc(-c3c(N)nc(N)nc3CN3CCc4ccccc4C3)cc2)cc1
> 10000 nM | 3250 nM | – | – | – | CCc1nc(N)nc(N2CCOCC2)c1-c1ccc(NCc2ccc(S(C)(=O)=O)cc2)cc1
54 nM | – | 38% | 25% | – | CS(=O)(=O)c1ccc(CNc2ccc(-c3c(N)nc(N)nc3[C@@H]3CCCO3)cc2)cc1
13 nM | – | – | – | – | CS(=O)(=O)c1ccc(CNc2ccc(-c3c(N)nc(N)nc3CN3CCc4ccccc43)cc2)cc1
